These results are taken from patent EP3807270B1, “NOVEL HETEROARYL HETEROCYCLYL COMPOUNDS FOR THE TREATMENT OF AUTOIMMUNE DISEASE” (F. Hoffmann-La Roche AG, priority 2018, dated 2019).

Data set [1] has as its target T1, hERG channel (Homo sapiens, UniProt Q12809).
T1 construct: expressed in transfected cells; host or cells: CHO (Chinese hamster ovary)
The data set is described as follows: hERG channel inhibition assay (patch-clamp, CHO hERG cells). To be noted: for IC50 / IC20: CHO hERG cells, whole-cell patch-clamp; for IC20: human, CHO cells stably expressing hERG; for hERG IC20 / TLR7 IC50 / hERG IC20 / TLR9 IC50: safety ratio; for hERG IC20 / TLR7 IC50: TLR7 IC50 of ER compounds from Table 1; for hERG IC20 / TLR9 IC50: TLR9 IC50 of ER compounds from Table 1. Type of data set: cell-based. On the procedure:
The hERG K^+ channels were cloned in humans and stably expressed in a CHO (Chinese hamster ovary) cell line. CHOhERG cells were used for patch-clamp (voltage-clamp, whole-cell) experiments. Cells were stimulated by a voltage pattern to activate hERG channels and conduct IKhERG currents (rapid delayed outward rectifier potassium current of the hERG channel). After the cells were stabilized for a few minutes, the amplitude and kinetics of IKhERG were recorded at a stimulation frequency of 0.1 Hz (6 bpm). Thereafter, the test compound was added to the preparation at increasing concentrations. For each concentration, an attempt was made to reach a steady-state effect, usually, this was achieved within 3-10 min at which time the next highest concentration was applied. The amplitude and kinetics of IKhERG are recorded in each concentration of the drug which were compared to the control values (taken as 100%). (references: Redfern WS, Carlsson L, Davis AS, Lynch WG, MacKenzie I, Palethorpe S, Siegl PK, Strang I, Sullivan AT, Wallis R, Camm AJ, Hammond TG. 2003; Relationships between preclinical cardiac electrophysiology, clinical QT interval prolongation and torsade de pointes for a broad range of drugs: evidence for a provisional safety margin in drug development. Cardiovasc. Res. 58:32-45, Sanguinetti MC, Tristani-Firouzi M. 2006; hERG potassium channels and cardiac arrhythmia. Nature 440:463-469, Webster R, Leishman D, Walker D. 2002; Towards a drug concentration effect relationship for QT prolongation and torsades de pointes. Curr. Opin. Drug Discov. Devel. 5:116-26).
Table 3. hERG and safety ratio results
(In general: hERG is a cardiac potassium channel; its block is linked to QT prolongation.)

Data set [2] deals with T2, hTLR9 (Homo sapiens, UniProt Q9NR96).
T2 sequence (Q9NR96 26-1032): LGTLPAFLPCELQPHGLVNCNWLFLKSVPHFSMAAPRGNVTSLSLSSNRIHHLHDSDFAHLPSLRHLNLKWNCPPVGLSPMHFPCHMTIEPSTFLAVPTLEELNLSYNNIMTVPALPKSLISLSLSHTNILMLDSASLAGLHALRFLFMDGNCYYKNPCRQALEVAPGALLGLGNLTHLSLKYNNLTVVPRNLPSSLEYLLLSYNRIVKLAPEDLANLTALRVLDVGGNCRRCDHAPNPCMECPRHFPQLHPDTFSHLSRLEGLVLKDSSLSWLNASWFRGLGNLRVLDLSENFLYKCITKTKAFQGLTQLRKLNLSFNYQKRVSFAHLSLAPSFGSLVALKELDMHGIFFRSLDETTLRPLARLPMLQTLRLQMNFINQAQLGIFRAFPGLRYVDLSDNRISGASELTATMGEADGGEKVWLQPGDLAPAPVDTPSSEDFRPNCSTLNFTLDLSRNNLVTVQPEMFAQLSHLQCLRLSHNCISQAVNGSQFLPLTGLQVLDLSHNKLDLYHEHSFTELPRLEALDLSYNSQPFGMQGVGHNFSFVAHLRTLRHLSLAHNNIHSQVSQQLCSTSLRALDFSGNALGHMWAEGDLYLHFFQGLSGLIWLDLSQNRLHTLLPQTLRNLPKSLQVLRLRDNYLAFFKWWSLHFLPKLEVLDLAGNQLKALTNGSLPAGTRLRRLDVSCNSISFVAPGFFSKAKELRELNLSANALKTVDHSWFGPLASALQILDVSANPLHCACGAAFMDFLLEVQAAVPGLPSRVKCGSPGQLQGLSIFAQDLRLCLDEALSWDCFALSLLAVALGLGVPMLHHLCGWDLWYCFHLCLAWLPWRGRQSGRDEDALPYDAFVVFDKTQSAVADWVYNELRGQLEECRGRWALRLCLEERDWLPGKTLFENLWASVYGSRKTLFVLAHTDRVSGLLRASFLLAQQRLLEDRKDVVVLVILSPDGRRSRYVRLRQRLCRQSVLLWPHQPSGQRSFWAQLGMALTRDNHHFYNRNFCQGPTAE
Also noted: host or cells: HEK. To be noted: data disclosed in US20150105370; read-out: HEK/hTLR9 IC50; cited from earlier work.

Data set [3] is described as follows: Human microsome stability assay. In kind it is in vitro ADME. To be noted: 1 µM test compound, 0.5 mg/mL liver microsomal protein, 37 °C. The protocol:
The human microsomal stability assay is used for early assessment of metabolic stability of a test compound in human liver microsomes.
Human liver microsomes (Cat.NO.: 452117, Corning, USA;Cat.NO.:H2610, Xenotech, USA) were preincubated with test compound for 10 minutes at 37 °C in 100 mM potassium phosphate buffer, pH 7.4. The reactions were initiated by adding NADPH regenerating system. The final incubation mixtures contained 1 µM test compound, 0.5 mg/mL liver microsomal protein, 1 mM MgClz, 1 mM NADP, 1 unit/mL isocitric dehydrogenase and 6 mM isocitric acid in 100 mM potassium phosphate buffer, pH 7.4. After incubation times of 0, 3, 6, 9, 15 and 30 minutes at 37 °C, 300 µL of cold acetonitrile (including internal standard) was added to 100 µL incubation mixture to terminate the reaction. Following precipitation and centrifugation, the amount of compound remaining in the samples were determined by LC-MS/MS. Controls of no NADPH regenerating system at zero and 30 minutes were also prepared and analyzed. […] Table 6. Human liver microsome stability of the compounds of present invention

The target in data set [4] is T3, hTLR7 (Homo sapiens, UniProt Q9NYK1).
T3 sequence (Q9NYK1 27-1049): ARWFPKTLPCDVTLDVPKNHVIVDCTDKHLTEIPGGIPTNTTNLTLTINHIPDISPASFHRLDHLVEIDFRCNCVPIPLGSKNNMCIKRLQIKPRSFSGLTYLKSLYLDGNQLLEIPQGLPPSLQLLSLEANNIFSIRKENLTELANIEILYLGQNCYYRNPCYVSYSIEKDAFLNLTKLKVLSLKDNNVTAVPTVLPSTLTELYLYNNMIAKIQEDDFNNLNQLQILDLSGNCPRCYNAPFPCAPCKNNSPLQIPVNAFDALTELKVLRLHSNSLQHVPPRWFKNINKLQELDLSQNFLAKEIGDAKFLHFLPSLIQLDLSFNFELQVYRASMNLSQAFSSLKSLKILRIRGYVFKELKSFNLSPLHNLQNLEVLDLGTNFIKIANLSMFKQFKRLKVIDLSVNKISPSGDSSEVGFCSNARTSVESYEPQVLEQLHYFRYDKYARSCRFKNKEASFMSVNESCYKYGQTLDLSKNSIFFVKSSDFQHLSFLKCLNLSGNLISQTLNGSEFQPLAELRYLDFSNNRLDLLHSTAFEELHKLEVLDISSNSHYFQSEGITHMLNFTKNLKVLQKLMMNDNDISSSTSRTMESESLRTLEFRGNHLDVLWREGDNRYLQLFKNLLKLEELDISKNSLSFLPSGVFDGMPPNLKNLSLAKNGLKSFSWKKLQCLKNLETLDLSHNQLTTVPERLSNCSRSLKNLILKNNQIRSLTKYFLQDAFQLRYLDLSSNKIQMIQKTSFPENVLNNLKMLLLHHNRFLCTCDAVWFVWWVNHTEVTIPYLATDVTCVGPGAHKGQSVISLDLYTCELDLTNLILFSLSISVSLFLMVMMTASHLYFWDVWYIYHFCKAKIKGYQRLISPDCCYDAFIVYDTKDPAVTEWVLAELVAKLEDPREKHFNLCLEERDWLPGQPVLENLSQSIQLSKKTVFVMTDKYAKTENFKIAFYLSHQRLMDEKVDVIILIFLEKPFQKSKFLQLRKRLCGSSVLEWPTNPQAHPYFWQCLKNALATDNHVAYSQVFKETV
Also on record: host or cells: HEK. To be noted: data disclosed in US20150105370; read-out: HEK/hTLR7 IC50; cited from earlier work.

The structures appear in SMILES notation.

T1 sequence (Q12809 whole entry): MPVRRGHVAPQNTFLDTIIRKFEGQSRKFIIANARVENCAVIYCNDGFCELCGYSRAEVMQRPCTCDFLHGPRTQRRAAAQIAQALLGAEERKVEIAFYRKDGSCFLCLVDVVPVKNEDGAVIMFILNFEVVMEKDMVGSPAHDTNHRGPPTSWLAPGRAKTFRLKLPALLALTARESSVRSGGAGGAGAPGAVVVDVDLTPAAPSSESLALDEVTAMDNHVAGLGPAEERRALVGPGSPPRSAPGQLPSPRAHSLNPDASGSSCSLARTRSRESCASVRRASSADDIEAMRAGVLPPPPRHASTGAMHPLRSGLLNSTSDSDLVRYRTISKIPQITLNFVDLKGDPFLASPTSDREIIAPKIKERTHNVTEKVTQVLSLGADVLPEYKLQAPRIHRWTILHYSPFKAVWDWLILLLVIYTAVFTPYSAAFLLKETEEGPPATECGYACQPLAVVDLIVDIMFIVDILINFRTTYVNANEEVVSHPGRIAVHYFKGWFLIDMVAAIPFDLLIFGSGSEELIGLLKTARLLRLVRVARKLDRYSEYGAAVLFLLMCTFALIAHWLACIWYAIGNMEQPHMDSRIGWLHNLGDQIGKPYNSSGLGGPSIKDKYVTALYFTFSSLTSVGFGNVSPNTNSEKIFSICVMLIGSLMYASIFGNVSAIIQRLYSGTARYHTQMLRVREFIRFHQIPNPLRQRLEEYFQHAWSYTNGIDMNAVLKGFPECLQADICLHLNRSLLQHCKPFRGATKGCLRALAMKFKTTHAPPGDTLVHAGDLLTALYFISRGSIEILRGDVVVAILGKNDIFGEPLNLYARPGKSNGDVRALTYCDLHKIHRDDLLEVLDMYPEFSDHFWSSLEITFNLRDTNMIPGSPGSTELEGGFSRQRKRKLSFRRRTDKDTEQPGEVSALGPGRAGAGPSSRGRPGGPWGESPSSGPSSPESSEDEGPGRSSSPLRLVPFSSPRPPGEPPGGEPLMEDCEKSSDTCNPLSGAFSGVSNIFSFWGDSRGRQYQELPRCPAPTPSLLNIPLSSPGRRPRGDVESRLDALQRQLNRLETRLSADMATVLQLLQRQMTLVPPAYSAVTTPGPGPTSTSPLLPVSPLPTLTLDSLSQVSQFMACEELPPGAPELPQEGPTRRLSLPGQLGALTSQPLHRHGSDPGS

`C[C@@H]1CN(c2ccc(C#N)c3ncccc23)C[C@H](CN2CCN(c3ccccc3)CC2)O1` [ER-887258, reference compound]: in data set [1], the IC50 was found to be 2780 nM, the 20% effect level (IC20) was put at 687 nM, the “hERG IC20 / TLR7 IC50” value was 8.1 and the “hERG IC20 / TLR9 IC50” value is on record as 0.3. Besides, the IC50 in data set [2] was over 2000 nM. For the same compound, in data set [3], the “Clearance of Human microsome” value is given as 17.86 mL/min/kg. Further, in data set [4], the IC50 is 85.2 nM.
Turning to `C[C@@H]1CN(c2ccc(C#N)c3ncccc23)C[C@H](CN2CCN(c3ccccn3)CC2)O1` [ER-888285, reference compound], in data set [1], the IC50 was found to be 3110 nM, the 20% effect concentration (IC20) stood at 1010 nM, the “hERG IC20 / TLR7 IC50” value was 8.4 and the “hERG IC20 / TLR9 IC50” value was 0.5. Further, the IC50 in data set [2] was over 2000 nM. Besides, the “Clearance of Human microsome” value in data set [3] is recorded as 17.15 mL/min/kg. The IC50 in data set [4] was 120 nM.

A word on the IC20: it is the concentration at which the effect reaches the 20% level.
